Reference: patent publication US20040048790A1, “Inducing cellular immune responses to p53 using peptide and nucleic acid compositions” (priority 1999, published 2004)
pIC50: −log10 of the molar value. No end group written: not given here.

Tests used:
[1] = target: DRB1*0301 (DR3) (Homo sapiens, UniProt P01903+P01911, A100K/A102G/A103R/A169T/F55Y/I96L/K41T/L162R/M171V/P40S/Q125H/Q178H/Q39Y/R42S/S66N/T106N/T262R/W38E/Y61H); assay type: binding
[2] = target: B*3501 (Homo sapiens, UniProt P01889, A329T/A93T/A95T/C349S/D201E/D98Y/E176V/E187L/E204Q/E69T/I218V/K202T/L119I/Q94N/R155S/R180L/S121R/S35A/S48A/T118I/V127L/V306I/V36M/Y140S/Y91F); experiment: biochemical
[3] = target: B*5401 (Homo sapiens, UniProt P01889, A329T/C349S/D138N/D201E/E176V/E187T/E204Q/E69G/I76V/K202T/L119W/R155S/R180L/S121T/S35A/S48A/V127L/V306I/V36M/Y140L); experiment: biochemical
[4] = target: B*5301 (Homo sapiens, UniProt P01889, A329T/A93T/A95T/C349S/D201E/D98Y/E176V/E187L/E204Q/E69T/G107R/I218V/K202T/L105A/L119I/N104I/Q94N/R106L/R155S/R180L/S101N/S121R/S35A/S48A/T118I/V127L/V306I/V36M/Y140S/Y91F); experiment: biochemical
[5] = target: HLA-B*0702 (Homo sapiens, UniProt P01889); experiment: biochemical

Chain of DRB1*0301 (DR3) (P01903 26-254 limits assumed, other chains not shown): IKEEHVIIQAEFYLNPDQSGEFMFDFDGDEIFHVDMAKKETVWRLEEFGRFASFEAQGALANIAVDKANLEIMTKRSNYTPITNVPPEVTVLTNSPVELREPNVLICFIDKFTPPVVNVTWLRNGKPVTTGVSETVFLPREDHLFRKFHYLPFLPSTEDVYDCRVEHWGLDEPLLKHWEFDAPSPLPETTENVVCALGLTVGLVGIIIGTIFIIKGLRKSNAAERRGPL

Molecule | pIC50 [1] | pIC50 [2] | pIC50 [3] | pIC50 [4] | pIC50 [5]
CC(C)C[C@H](NC(=O)[C@H](CC(N)=O)NC(=O)CNC(=O)[C@@H](N)CCC(=O)O)C(=O)N[C@@H](CCCNC(=N)N)C(=O)N[C@H](C(=O)N[C@@H](CCC(=O)O)C(=O)N[C@@H](Cc1ccc(O)cc1)C(=O)N[C@@H](CC(C)C)C(=O)N[C@@H](CC(=O)O)C(=O)N[C@@H](CC(=O)O)C(=O)N[C@@H](CCCNC(=N)N)C(=O)N[C@@H](CC(N)=O)C(=O)N[C@H](C(=O)N[C@@H](Cc1ccccc1)C(=O)O)[C@@H](C)O)C(C)C | < 5.00 |  |  |  | 
CC[C@H](C)[C@H](NC(=O)[C@H](CCC(N)=O)NC(=O)[C@H](CC(C)C)NC(=O)[C@@H](NC(=O)[C@H](Cc1ccccc1)NC(=O)[C@H](Cc1ccc(O)cc1)NC(=O)[C@H](CCC(=O)O)NC(=O)CN)[C@@H](C)O)C(=O)N[C@@H](CCCNC(=N)N)C(=O)NCC(=O)N[C@@H](CCCNC(=N)N)C(=O)N[C@@H](CCC(=O)O)C(=O)N[C@@H](CCCNC(=N)N)C(=O)N[C@@H](Cc1ccccc1)C(=O)N[C@@H](CCC(=O)O)C(=O)O | < 5.00 |  |  |  | 
CC[C@H](C)[C@H](NC(=O)[C@H](CCC(N)=O)NC(=O)[C@H](CC(C)C)NC(=O)[C@@H](NC(=O)[C@H](Cc1ccccc1)NC(=O)[C@H](Cc1ccc(O)cc1)NC(=O)[C@H](CCC(=O)O)NC(=O)CNC(=O)[C@H](CC(=O)O)NC(=O)[C@H](CC(C)C)NC(=O)[C@@H]1CCCN1C(=O)[C@H](CCCCN)NC(=O)[C@@H](N)CCCCN)[C@@H](C)O)C(=O)N[C@@H](CCCNC(=N)N)C(=O)NCC(=O)O | < 5.00 |  |  |  | 
CC[C@H](C)[C@H](NC(=O)[C@@H](NC(=O)[C@@H](N)CC(C)C)[C@@H](C)O)C(=O)N[C@H](C(=O)N[C@H](C(=O)N[C@@H](CC(C)C)C(=O)N[C@@H](CCC(=O)O)C(=O)N[C@@H](CC(=O)O)C(=O)N[C@@H](CO)C(=O)N[C@@H](CO)C(=O)NCC(=O)N[C@@H](CC(N)=O)C(=O)N[C@@H](CC(C)C)C(=O)N[C@@H](CC(C)C)C(=O)NCC(=O)O)[C@@H](C)O)[C@@H](C)CC | < 5.00 |  |  |  | 
CC[C@H](C)[C@H](NC(=O)[C@H](C)NC(=O)[C@@H](N)CCSC)C(=O)N[C@@H](Cc1ccc(O)cc1)C(=O)N[C@@H](CCCCN)C(=O)N[C@@H](CCC(N)=O)C(=O)N[C@@H](CO)C(=O)N[C@@H](CCC(N)=O)C(=O)N[C@@H](Cc1c[nH]cn1)C(=O)N[C@@H](CCSC)C(=O)N[C@H](C(=O)N[C@@H](CCC(=O)O)C(=O)N[C@H](C(=O)N[C@H](C(=O)N[C@@H](CCCNC(=N)N)C(=O)O)C(C)C)C(C)C)[C@@H](C)O | < 5.00 |  |  |  | 
CC[C@H](C)[C@H](NC(=O)[C@@H](NC(=O)[C@@H](NC(=O)[C@H](CS)NC(=O)[C@H](CC(=O)O)NC(=O)[C@H](CO)NC(=O)CNC(=O)[C@@H](NC(=O)[C@H](CCC(=O)O)NC(=O)[C@@H]1CCCN1C(=O)[C@@H]1CCCN1)C(C)C)[C@@H](C)O)[C@@H](C)O)C(=O)N[C@@H](Cc1c[nH]cn1)C(=O)N[C@@H](Cc1ccc(O)cc1)C(=O)N[C@@H](CC(N)=O)C(=O)N[C@@H](Cc1ccc(O)cc1)C(=O)O | 5.10 |  |  |  | 
CC(C)C[C@H](NC(=O)[C@H](CCC(N)=O)NC(=O)[C@@H](NC(=O)[C@@H]1CCCN1)C(C)C)C(=O)N[C@@H](Cc1c[nH]c2ccccc12)C(=O)N[C@H](C(=O)N[C@@H](CC(=O)O)C(=O)N[C@@H](CO)C(=O)N[C@H](C(=O)N1CCC[C@H]1C(=O)N1CCC[C@H]1C(=O)N1CCC[C@H]1C(=O)NCC(=O)N[C@H](C(=O)N[C@@H](CCCNC(=N)N)C(=O)O)[C@@H](C)O)[C@@H](C)O)C(C)C | < 5.00 |  |  |  | 
CC[C@H](C)[C@H](NC(=O)[C@H](C)NC(=O)[C@H](CCC(N)=O)NC(=O)[C@H](CO)NC(=O)[C@@H]1CCCN1C(=O)[C@H](CC(C)C)NC(=O)[C@@H]1CCCN1C(=O)[C@@H](N)Cc1ccccc1)C(=O)O [p53.33.F1] |  | 6.14 | 7.08 |  | 
CC[C@H](C)[C@H](NC(=O)[C@@H]1CCCN1C(=O)[C@@H]1CCCN1C(=O)[C@H](C)NC(=O)[C@H](C)NC(=O)[C@H](CCC(=O)O)NC(=O)[C@@H]1CCCN1C(=O)[C@H](CCSC)NC(=O)[C@H](CCCNC(=N)N)NC(=O)[C@@H]1CCCN1C(=O)[C@@H](N)Cc1ccccc1)C(=O)O [p53.63.F1111] |  | 5.26 | 8.54 | 5.26 | 
CC[C@H](C)[C@H](NC(=O)[C@H](C)NC(=O)[C@@H]1CCCN1C(=O)[C@H](C)NC(=O)[C@@H]1CCCN1C(=O)[C@H](C)NC(=O)[C@@H](NC(=O)[C@@H]1CCCN1C(=O)[C@@H]1CCCN1C(=O)[C@@H](N)Cc1ccccc1)C(C)C)C(=O)O [p53.70.F1110] |  |  | 7.20 | 5.54 | 6.54
CC[C@H](C)[C@H](NC(=O)[C@@H]1CCCN1C(=O)[C@@H](NC(=O)[C@@H]1CCCN1C(=O)[C@H](C)NC(=O)[C@H](C)NC(=O)[C@@H]1CCCN1C(=O)[C@H](C)NC(=O)[C@@H]1CCCN1C(=O)[C@@H](N)Cc1ccccc1)[C@@H](C)O)C(=O)O [p53.74.F1110] |  | 6.56 | 8.28 | 6.90 | 8.82
CC[C@H](C)[C@H](NC(=O)[C@@H]1CCCN1C(=O)[C@@H](NC(=O)[C@@H]1CCCN1C(=O)[C@H](C)NC(=O)[C@H](C)NC(=O)[C@@H]1CCCN1C(=O)[C@@H](N)Cc1ccccc1)[C@@H](C)O)C(=O)O [p53.76.F118] |  | 6.18 | 8.51 |  | 6.89
CC[C@H](C)[C@H](NC(=O)[C@@H]1CCCN1C(=O)[C@H](C)NC(=O)[C@H](C)NC(=O)[C@@H]1CCCN1C(=O)[C@@H](NC(=O)[C@@H]1CCCN1C(=O)[C@H](C)NC(=O)[C@H](C)NC(=O)[C@@H]1CCCN1C(=O)[C@@H](N)Cc1ccccc1)[C@@H](C)O)C(=O)O [p53.76.F1111] |  |  | 7.82 | 5.49 | 
CC[C@H](C)[C@H](NC(=O)[C@@H]1CCCN1C(=O)[C@H](C)NC(=O)[C@H](C)NC(=O)[C@@H]1CCCN1C(=O)[C@@H](NC(=O)[C@@H]1CCCN1C(=O)[C@@H](N)Cc1ccccc1)[C@@H](C)O)C(=O)O [p53.79.F118] |  | 5.29 | 8.11 | 5.21 | 7.05
CC(C)C[C@H](NC(=O)[C@@H]1CCCN1C(=O)[C@H](Cc1c[nH]c2ccccc12)NC(=O)[C@H](CO)NC(=O)[C@@H]1CCCN1C(=O)[C@H](C)NC(=O)[C@@H]1CCCN1C(=O)[C@H](C)NC(=O)[C@@H]1CCCN1C(=O)[C@@H](N)Cc1ccccc1)C(=O)O [p53.84.F1] |  | 8.29 | 8.77 |  | 
CC[C@H](C)[C@H](NC(=O)[C@H](CO)NC(=O)[C@@H]1CCCN1C(=O)[C@H](C)NC(=O)[C@@H]1CCCN1C(=O)[C@H](C)NC(=O)[C@@H]1CCCN1C(=O)[C@@H](N)Cc1ccccc1)C(=O)O [p53.84.F118] |  | 6.49 | 8.17 | 6.88 | 
CC[C@H](C)[C@H](NC(=O)[C@@H]1CCCN1C(=O)[C@H](Cc1c[nH]c2ccccc12)NC(=O)[C@H](CO)NC(=O)[C@@H]1CCCN1C(=O)[C@H](C)NC(=O)[C@@H]1CCCN1C(=O)[C@H](C)NC(=O)[C@@H]1CCCN1C(=O)[C@@H](N)Cc1ccccc1)C(=O)O [p53.84.F1110] |  |  | 8.92 | 7.38 | 7.89
CC(C)C[C@H](NC(=O)[C@@H]1CCCN1C(=O)[C@H](Cc1c[nH]c2ccccc12)NC(=O)[C@H](CO)NC(=O)[C@@H]1CCCN1C(=O)[C@H](C)NC(=O)[C@@H]1CCCN1C(=O)[C@@H](N)Cc1ccccc1)C(=O)O [p53.86.F1] |  | 8.51 | 8.04 | 8.40 | 8.00
CC(C)C[C@H](NC(=O)[C@@H]1CCCN1C(=O)[C@H](Cc1c[nH]c2ccccc12)NC(=O)[C@H](CO)NC(=O)[C@@H]1CCCN1C(=O)[C@@H](N)Cc1ccccc1)C(=O)N[C@@H](CO)C(=O)N[C@@H](CO)C(=O)N[C@@H](CO)C(=O)N[C@H](C(=O)O)C(C)C [p53.88.F1] |  | 7.14 | 9.52 | 7.03 | 8.49
CC[C@H](C)[C@H](NC(=O)[C@H](CO)NC(=O)[C@H](CO)NC(=O)[C@H](CO)NC(=O)[C@H](CC(C)C)NC(=O)[C@@H]1CCCN1C(=O)[C@H](Cc1c[nH]c2ccccc12)NC(=O)[C@H](CO)NC(=O)[C@@H]1CCCN1C(=O)[C@@H](N)Cc1ccccc1)C(=O)O [p53.88.F1110] |  | 7.00 | 8.62 | 8.07 | 8.26
CC[C@H](C)[C@H](NC(=O)[C@@H](NC(=O)[C@@H](NC(=O)[C@@H](NC(=O)[C@@H](NC(=O)[C@H](CC(C)C)NC(=O)[C@@H](NC(=O)[C@@H]1CCCN1C(=O)[C@@H](N)Cc1ccccc1)[C@@H](C)CC)[C@@H](C)O)[C@@H](C)CC)[C@@H](C)CC)[C@@H](C)O)C(=O)O [p53.249.F119] |  | 7.44 | 8.74 | 8.40 | 7.13
FPAAPTPAI [p53.76.F119] |  | 7.92 | 8.60 | 8.14 | 8.59
FPAPSWPI [p53.86.F118] |  | 8.32 | 8.80 | 8.48 | 6.92
FPILTIITL [p53.249.F1] |  | 8.10 | 8.30 | 8.14 | 8.19
